Biological target: T1, Substance-K receptor (Homo sapiens, UniProt P21452)
T1 sequence (P21452 whole entry): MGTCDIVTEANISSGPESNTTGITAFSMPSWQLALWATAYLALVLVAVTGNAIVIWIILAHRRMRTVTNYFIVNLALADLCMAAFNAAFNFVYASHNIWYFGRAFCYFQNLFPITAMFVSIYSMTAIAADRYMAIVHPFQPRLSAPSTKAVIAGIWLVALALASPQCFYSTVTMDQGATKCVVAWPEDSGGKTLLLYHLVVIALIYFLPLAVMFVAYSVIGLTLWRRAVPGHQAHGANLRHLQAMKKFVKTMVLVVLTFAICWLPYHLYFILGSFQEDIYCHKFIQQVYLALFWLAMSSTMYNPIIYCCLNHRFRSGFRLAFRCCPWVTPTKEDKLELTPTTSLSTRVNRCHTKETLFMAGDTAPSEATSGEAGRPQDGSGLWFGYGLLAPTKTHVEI
Test: ChEBML_209037
Text: Displacement of [125I]NKA from human Tachykinin receptor 2 expressed in CHO cells

Ki: 0.79 µM
SMILES: CCOC(=O)C1C(C)OC2OC(COCc3ccccc3)C(OCc3ccccc3)C(=O)C2[S+]1[O-] (stereo unspecified) [7-Benzyloxy-6-benzyloxymethyl-8-hydroxy-3-methyl-1-oxo-6,7,8,8a-tetrahydro-1H,4aH-4,5-dioxa-1lambda*4*-thia-naphthalene-2-carboxylic acid ethyl ester]

From BindingDB's records for doi:10.1016/s0960-894x(02)00471-7 (Universita' Di Firenze, 2002)
